These results are taken from patent publication US4876247A, “Methlenediphosphonic acid derivatives, and antirheumatic pharmaceutical composition in which they are present and methods of using same” (Sanofi, priority 1984, dated 1989).

This assay has as its system adjuvant arthritis. In words: "In vivo" study: adjuvant arthritis (Mycobacterium tuberculosis) in rats, weight of the right rear paw. Set-up: species or system male Sprague-Dawley rats. The following applies: oral, 0.16 mmol/kg/day, 6 days/week for 3 weeks, versus untreated arthritic control rats. As to the method: "IN VIVO" STUDY: ADJUVANT ARTHRITIS
The injection of rats with mycobacterium causes a polyarthritis and in certain respects resembles human rheumatoid arthritis.
A suspension of Mycobacterium tuberculosis (0.4 mg) in paraffin oil (0.05 ml) is injected intradermally into the tail of male Sprague-Dawley rats having a mean weight of 150 g.
These rats are divided into 2 groups of 14 animals.
The animals of the 1st group are treated 6 days/week for 3 weeks;
either subcutaneously with doses ranging from 0.32 μmol to 32 μmol/kg/day,
or orally with a dose of 0.16 mmol/kg/day. The second group receives placebo and serves as the control group.
After 3 weeks of treatment, half the animals in each group are sacrificed; the other half are kept for 2 weeks without treatment and then sacrificed in turn.
After the animals have been sacrificed, the right rear paw is removed at the tribiotarsal joint and then weighed. The mean and the standard error of the weights are determined for each half-group.
The activity of the product is expresed as the percentage variation in the mean weight of the paws of the treated arthritic rats relative to that of the arthritic paws of the untreated rats (control rats).
For each of the products tested, the therapeutic activity is expressed as the percentage inhibition of the weight of the paw after 3 weeks of treatment. […]

On to `Cc1ccc(SCC(N)(P(=O)(O)O)P(=O)(O)O)cc1` [42 710 A], for which the “% Inhibition of the weight of the paw at the end of the treatment (3 weeks)” value was determined as 19%. Besides, for the setting “then 2 weeks without treatment”, the “% Inhibition of the weight of the paw 2 weeks after the end of the treatment” value is 7%.
